Source: ChEMBL document CHEMBL5696442, “Discovery of type II inhibitors of TGFβ-activated kinase 1 (TAK1) and mitogen-activated protein kinase kinase kinase kinase 2 (MAP4K2)” (J Med Chem, 2015)

Experiments:
[1] = biological target: T1, Mitogen-activated protein kinase kinase kinase kinase 2 (Homo sapiens) (UniProt Q12851); assay: Inhibition of MAP4K2 Lys1 labeling site in human Huh-7 cell lysate at 1 uM by KiNativ Profiling analysis relative to control; assay type: subcellular
T1 sequence (whole entry): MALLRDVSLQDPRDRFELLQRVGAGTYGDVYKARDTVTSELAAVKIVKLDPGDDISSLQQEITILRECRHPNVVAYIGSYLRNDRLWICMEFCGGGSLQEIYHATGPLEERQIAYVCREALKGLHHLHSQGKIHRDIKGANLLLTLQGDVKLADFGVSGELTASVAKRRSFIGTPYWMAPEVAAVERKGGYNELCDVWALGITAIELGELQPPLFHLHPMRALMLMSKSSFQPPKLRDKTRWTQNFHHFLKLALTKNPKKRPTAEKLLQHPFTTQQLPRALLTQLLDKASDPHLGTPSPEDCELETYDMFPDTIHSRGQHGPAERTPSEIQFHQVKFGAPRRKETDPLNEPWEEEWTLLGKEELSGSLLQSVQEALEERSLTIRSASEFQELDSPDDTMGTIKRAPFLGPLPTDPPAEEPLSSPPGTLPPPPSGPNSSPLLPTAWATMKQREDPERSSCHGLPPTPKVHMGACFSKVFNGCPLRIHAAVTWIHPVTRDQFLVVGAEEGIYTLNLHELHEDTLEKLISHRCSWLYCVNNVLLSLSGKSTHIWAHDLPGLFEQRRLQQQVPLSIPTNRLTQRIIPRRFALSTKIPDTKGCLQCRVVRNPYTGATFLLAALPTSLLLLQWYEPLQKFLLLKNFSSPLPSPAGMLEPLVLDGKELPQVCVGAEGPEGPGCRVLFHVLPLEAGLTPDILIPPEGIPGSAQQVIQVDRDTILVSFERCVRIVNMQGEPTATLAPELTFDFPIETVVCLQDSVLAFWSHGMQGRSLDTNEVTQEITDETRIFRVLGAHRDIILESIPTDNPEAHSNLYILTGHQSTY

[2] = biological target: Serine/threonine-protein kinase WNK4 (Homo sapiens) (UniProt Q96J92); assay: Inhibition of Wnk4 ACT labeling site in human A-375 cells at 5 uM by KiNativ Profiling analysis relative to control; assay type: cell-based
[3] = biological target: T2, Serine/threonine-protein kinase Nek9 (Homo sapiens) (UniProt Q8TD19); assay: Inhibition of NEK9 Lys1 labeling site harbouring RTEDDSLVVWKEVDLTR in human A-375 cells at 0.5 uM by KiNativ Profiling analysis relative to control; assay type: cell-based
T2 sequence (whole entry): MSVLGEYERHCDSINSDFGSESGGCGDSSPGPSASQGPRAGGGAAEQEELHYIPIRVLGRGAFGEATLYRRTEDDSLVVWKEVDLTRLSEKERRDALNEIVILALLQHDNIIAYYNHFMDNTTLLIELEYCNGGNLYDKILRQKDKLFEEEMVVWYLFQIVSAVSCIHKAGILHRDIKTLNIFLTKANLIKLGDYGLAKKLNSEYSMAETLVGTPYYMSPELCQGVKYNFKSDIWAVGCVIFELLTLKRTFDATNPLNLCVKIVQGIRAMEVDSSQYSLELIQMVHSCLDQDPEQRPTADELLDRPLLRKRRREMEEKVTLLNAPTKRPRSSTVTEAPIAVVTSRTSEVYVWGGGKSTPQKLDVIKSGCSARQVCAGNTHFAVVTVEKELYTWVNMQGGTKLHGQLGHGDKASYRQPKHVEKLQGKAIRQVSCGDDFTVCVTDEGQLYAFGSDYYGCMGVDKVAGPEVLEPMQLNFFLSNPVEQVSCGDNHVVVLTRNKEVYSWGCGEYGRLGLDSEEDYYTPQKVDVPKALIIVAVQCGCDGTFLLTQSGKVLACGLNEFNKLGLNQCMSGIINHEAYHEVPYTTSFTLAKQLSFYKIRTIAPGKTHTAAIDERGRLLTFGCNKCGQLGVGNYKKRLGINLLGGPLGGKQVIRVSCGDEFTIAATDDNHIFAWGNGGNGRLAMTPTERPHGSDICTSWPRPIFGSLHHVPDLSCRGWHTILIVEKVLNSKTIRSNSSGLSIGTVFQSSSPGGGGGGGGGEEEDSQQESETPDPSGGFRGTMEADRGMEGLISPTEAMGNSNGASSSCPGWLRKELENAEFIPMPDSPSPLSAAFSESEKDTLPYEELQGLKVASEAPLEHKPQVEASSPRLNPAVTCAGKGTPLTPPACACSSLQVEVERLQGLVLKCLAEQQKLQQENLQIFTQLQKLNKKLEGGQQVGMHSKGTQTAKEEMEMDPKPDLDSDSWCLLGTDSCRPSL

[4] = biological target: T3, Aurora kinase C (Homo sapiens) (UniProt Q9UQB9); assay: Inhibition of AurC ATP Loop labeling site in human A-375 cells at 0.05 uM by KiNativ Profiling analysis relative to control; assay type: cell-based
T3 sequence (whole entry): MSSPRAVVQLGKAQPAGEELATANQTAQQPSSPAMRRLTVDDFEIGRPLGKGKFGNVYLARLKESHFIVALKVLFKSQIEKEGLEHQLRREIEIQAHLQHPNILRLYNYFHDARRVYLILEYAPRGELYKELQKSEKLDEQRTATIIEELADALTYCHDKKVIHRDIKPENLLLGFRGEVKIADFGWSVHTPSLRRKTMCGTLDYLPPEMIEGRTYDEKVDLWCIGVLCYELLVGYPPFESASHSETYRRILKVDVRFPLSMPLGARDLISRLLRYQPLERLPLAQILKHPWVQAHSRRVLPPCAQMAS

[5] = biological target: Diacylglycerol kinase alpha (Homo sapiens) (UniProt P23743); assay: Inhibition of DGKA ATP labeling site harbouring in human A-375 cells at 0.05 uM by KiNativ Profiling analysis relative to control; assay type: cell-based
[6] = biological target: T2, Serine/threonine-protein kinase Nek9 (Homo sapiens); assay: Inhibition of NEK9 ACT labeling site in human A-375 cells at 0.5 uM by KiNativ Profiling analysis relative to control; assay type: cell-based

Chain of Serine/threonine-protein kinase WNK4 (Homo sapiens) (Q96J92 whole entry): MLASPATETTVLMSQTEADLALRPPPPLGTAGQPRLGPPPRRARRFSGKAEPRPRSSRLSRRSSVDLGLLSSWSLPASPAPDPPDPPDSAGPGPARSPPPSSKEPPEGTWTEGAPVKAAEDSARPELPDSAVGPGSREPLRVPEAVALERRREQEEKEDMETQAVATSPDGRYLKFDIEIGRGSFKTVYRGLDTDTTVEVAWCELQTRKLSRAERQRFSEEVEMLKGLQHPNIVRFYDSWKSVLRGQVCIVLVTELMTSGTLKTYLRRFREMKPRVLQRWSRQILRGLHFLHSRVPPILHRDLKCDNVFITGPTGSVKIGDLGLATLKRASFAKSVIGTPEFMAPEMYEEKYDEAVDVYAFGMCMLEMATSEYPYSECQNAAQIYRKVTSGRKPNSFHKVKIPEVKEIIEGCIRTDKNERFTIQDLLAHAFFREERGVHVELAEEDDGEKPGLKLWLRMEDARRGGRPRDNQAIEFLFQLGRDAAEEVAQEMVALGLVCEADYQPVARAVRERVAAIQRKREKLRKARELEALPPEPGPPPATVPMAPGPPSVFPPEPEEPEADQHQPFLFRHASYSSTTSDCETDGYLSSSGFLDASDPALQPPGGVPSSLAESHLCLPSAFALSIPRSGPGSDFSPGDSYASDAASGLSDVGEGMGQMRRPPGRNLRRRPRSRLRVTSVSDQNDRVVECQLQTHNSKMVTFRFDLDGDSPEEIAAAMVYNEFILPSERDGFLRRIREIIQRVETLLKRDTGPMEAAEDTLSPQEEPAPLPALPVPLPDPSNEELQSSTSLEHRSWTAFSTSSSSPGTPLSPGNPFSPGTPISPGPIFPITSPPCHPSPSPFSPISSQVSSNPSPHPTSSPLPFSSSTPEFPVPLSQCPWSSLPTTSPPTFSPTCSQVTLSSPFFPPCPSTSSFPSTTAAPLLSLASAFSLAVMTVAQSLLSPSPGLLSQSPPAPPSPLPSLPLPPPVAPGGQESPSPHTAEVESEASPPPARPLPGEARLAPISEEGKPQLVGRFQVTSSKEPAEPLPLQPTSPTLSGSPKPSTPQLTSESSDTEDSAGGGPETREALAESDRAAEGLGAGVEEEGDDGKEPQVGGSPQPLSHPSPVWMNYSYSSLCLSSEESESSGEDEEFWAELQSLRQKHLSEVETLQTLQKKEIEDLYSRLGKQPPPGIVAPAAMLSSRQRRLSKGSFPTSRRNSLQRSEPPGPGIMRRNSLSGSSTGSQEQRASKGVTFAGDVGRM
Chain of Diacylglycerol kinase alpha (Homo sapiens) (P23743 whole entry): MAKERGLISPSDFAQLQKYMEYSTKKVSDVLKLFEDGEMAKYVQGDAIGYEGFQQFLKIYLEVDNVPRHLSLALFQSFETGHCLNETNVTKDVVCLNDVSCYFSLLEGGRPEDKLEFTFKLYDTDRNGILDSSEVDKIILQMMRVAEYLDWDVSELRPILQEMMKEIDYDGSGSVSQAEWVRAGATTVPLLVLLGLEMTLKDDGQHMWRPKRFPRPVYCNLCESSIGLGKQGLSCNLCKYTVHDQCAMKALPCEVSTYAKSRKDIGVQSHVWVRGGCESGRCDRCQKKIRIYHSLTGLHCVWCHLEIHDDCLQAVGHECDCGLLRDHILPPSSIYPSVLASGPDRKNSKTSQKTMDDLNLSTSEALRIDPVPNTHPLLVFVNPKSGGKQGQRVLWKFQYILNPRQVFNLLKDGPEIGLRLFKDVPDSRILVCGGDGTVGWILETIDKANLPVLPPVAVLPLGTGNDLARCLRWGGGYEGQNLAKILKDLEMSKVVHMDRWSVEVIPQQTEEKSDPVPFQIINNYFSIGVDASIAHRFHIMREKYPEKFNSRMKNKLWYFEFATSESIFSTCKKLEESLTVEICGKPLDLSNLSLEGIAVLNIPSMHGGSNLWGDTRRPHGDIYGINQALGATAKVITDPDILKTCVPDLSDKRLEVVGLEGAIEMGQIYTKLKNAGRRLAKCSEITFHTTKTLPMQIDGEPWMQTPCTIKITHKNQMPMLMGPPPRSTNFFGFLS

SMILES	inhibition [1]	inhibition [2]	inhibition [3]	inhibition [4]	inhibition [5]	inhibition [6]
CNc1cc(Oc2cc(C(=O)Nc3cc(N4CCN(C)CC4)cc(C(F)(F)F)c3)ccc2C)ncn1	85.3%					
CCN1CCN(Cc2ccc(NC(=O)c3ccc(C)c(Oc4ccnc5[nH]ccc45)c3)cc2C(F)(F)F)CC1		14.4%	13.9%	32.5%	-8.4%	-2.4%
CNc1cc(Oc2cc(C(=O)Nc3cc(-n4cnc(C)c4)cc(C(F)(F)F)c3)ccc2C)ncn1	79.7%					
CCN1CCN(Cc2ccc(NC(=O)c3ccc(C)c(/C=C/c4cnc5[nH]ccc5c4OC)c3)cc2C(F)(F)F)CC1		-4.5%	7%	14.1%	14.6%	-3.8%
